The record followed here is patent publication US20200383985A1, “Inhibitors of Protease Activated Receptor-2” (Endosome Therapeutics, Inc., priority 2017, published 2020).

The experiment concerns mouse DRG neurons. Put plainly: Patch clamp rheobase of DRG neurons: IBS-D biopsy supernatant-induced hyperexcitability. The note with it: I-343 10 μM, Dy4 30 μM, PD98059 50 μM. The format is cell-based. The method, then: An investigation as whether proteases from mucosal biopsies of IBS patients cause a persistent hyperexcitability of nociceptors was conducted by a mechanism that entails endosomal signaling of PAR2. Biopsies of colonic mucosa from patients with diarrhea-predominant IBS (IBS-D) or healthy control (HC) subjects were placed in culture medium (24 h, 37° C.). Mouse DRG neurons were then exposed to biopsy supernatants (30 min, 37° C.) and washed. Rheobase was measured 30 min after washing to assess persistent hyperexcitability. Supernatants of biopsies from IBS-D patients caused a persistent decrease in rheobase, consistent with hyperexcitability, when compared to supernatants from HC subjects (rheobase at 30 min: HC, 78.33±4.41 pA, 12 neurons, supernatant from 4 HC; IBS-D, 54.55±4.74 pA, 11 neurons, supernatant from 4 IBS-D; P<0.05; ANOVA, Tukey's multiple comparisons test) (FIG. 6A, B). I-343 (10 μM), Dy4 (dynamin inhibitor, 30 μM) and PD98059 (MEK1 inhibitor, 50 μM) abolished IBS-D-induced hyperexcitability of nociceptors (FIG. 6A-D).
The Queen's University Human Ethics Committee approved human studies. All subjects gave informed consent. Endoscopic biopsies were obtained from the descending colon of 13 adult IBS-D patients (12 female) diagnosed using ROME III criteria for diarrhea predominant IBS and of 12 health controls. All IBS patients had symptoms greater than 1 year and most were greater than 5 years. Celiac disease was excluded by blood test and patients over 40 years with daily diarrhea were biopsied at the time of colonoscopy to exclude microscopic colitis. […] Biopsies (8 samples per patient) were incubated in 250 μl of RPMI medium containing 10% fetal calf serum, penicillin/streptomycin and gentamicin/amphotericin B (95% O2/5% […], 24 h, 37° C.). Supernatants were stored at −80° C. Supernatants from 4-6 patients were pooled and studied in individual experiments.
DRG innervating the colon (T9-T13) were collected from C57BL/6 mice. Ganglia were digested by incubation in collagenase IV (1 mg/ml, Worthington) and dispase (4 mg/ml, Roche) (10 min, 37° C.). DRG were triturated with a fire-polished Pasteur pipette, and further digested (5 min, 37° C.). Neurons were washed, plated onto laminin- (0.017 mg/ml) and poly-D-lysine- (2 mg/ml) coated glass coverslips, and were maintained in F12 medium containing 10% fetal calf serum, penicillin and streptomycin (95% air, 5% CO2, 16 h, 37° C.) until retrieval for electrophysiological studies.
Small-diameter (<30 pF capacitance) neurons were studied because they display characteristics of nociceptors (Valdez-Morales E. E. et al., Am J Gastroenterol 2013, 108(10): 1634-1643). Changes in excitability were quantified by measuring rheobase. Whole-cell perforated patch-clamp recordings were made using Amphotericin B (240 μg/ml, Sigma Aldrich) in current clamp mode at room temperature. The recording chamber was perfused with external solution at 2 ml/min. Recordings were made using Multiclamp 700B or Axopatch 200B amplifiers, digitized by Digidata 1440A or 1322A, and processed using pClamp 10.1 software (Molecular Devices). Solutions had the composition (mM): pipette—K-gluconate 110, KC130, HEPES 10, MgCl2 1, CaCl2 2; pH 7.25 with 1 M KOH; external—NaCl 140, KCl 5 HEPES 10, glucose 10, MgCl2 1, CaCl2 2; pH to 7.3-7.4 with 3 M NaOH. […] Neurons were also preincubated with trypsin (50 nM, 10 min), NE (390 nM, 30 min), CS (500 nM, 60 min), or vehicle (37° C.), and washed. Rheobase was measured at T 0 or T 30 min after washing. To investigate mechanisms of protease-evoked effects, neurons were incubated with I-343 (100 nM, 300 nM, 10 μM, 30 min preincubation), SCH79797 (1 μM, 10 min), Dy4 (30 μM, 30 min), PS2 (15 μM, 30 min), PD98059 (50 μM, 30 min), GF109203X (10 μM, 30 min), or vehicle (preincubation and inclusion throughout). In experiments using the tripartite antagonist, neurons were preincubated with Compound 10 (30 μM, 60 min, 37° C.) or vehicle and washed. […]

With `Cc1nc(C(=O)N2CCN(C(=O)c3cn4nc(-c5ccc(F)cc5)cc(C(C)(C)C)c4n3)C(C)(C)C2)n[nH]1` [Compound I-343, (8-(tert-butyl)-6-(4-fluorophenyl)imidazo[1,2-b]pyridazin-2-yl)(2,2-dimethyl-4-(5-methyl-1H-1,2,4-triazole-3-carbonyl)piperazin-1-yl)methanone], the “IBS-D-induced hyperexcitability of nociceptors” value is “abolished” and the “rheobase of neurons exposed to HC supernatant” value was “no effect”.

Turning to `O=C(N/N=C/c1cc(O)c(O)cc1O)c1cc2ccccc2cc1O` [Dy4], the “IBS-D-induced hyperexcitability of nociceptors” value was “abolished” and the “rheobase of neurons exposed to HC supernatant” value was “non-significant decrease”.
